# Results filed as inconclusive are left out. The source made the active and inactive calls.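 How the source made its calls: active means compound giving calcium release at least equal to the estrogen response, or cutting estrogen-driven calcium release by 60% or more; inconclusive means compound glowing brighter than the detergent maximum; inactive means the rest.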
# Molecular target: G-protein coupled estrogen receptor 1 (Homo sapiens) (UniProt Q99527)
# Experiment: GPR30 agonists and antagonists by calcium flux, primary screen, HL-60 cells, Indo-1 fluorescence, 10 µM (AID 1213)
# Conditions: Indo-1 calcium mobilization, at 10 µM, stronger effect = higher value
row,SMILES,calcium mobilization (agonist)
1,CCc1ccc2c(c1)[C@H]1OCC[C@H]1[C@@H](c1cccs1)N2,50% (inactive)
2,O=C(O)c1ccc2c(c1)C1C=CCC1C(c1cc3c(cc1Br)OCO3)N2 (stereo not given),100%
3,Cc1cc(C(=O)Nc2sc3c(c2C#N)CCC3)no1,0% (inactive)
4,Cc1c(Cl)cccc1NS(=O)(=O)c1ccc2c(c1)C1C=CCC1C(c1ccc(C(=O)O)cc1)N2 (stereo not given),0%
5,O=C(Nc1cc(C(F)(F)F)ccc1N1CCOCC1)C1Cc2ccccc2CN1C(=O)c1ccco1 (stereo not given),0% (inactive)
6,CC(=O)c1ccc2c(c1)C1C=CCC1C(C(=O)O)N2 (stereo not given),0% (inactive)
7,C[C@H]1CCC[C@@H](O)CCC/C=C/c2cc(O)cc(O)c2C(=O)O1,50% (inactive)
8,Cc1cc([N+](=O)[O-])c2c(c1C)C1C=CCC1C(c1ccccn1)N2 (stereo not given),0% (inactive)
9,Cc1ccc2c(c1)[C@H]1OCC[C@H]1[C@@H](c1ccncc1)N2,0% (inactive)
10,CCNC(=O)c1ccc2c(c1)C1C3CCC(C3)C1C(c1ccccc1)N2 (stereo not given),100%
11,FC(F)(F)c1ccc2c(c1)C1C=CCC1C(c1ccncc1)N2 (stereo not given),0% (inactive)
12,COc1ccc(OC)c(C2Nc3c(Cl)ccc(C(=O)O)c3C3C=CCC32)c1 (stereo not given),50% (inactive)
13,Cc1cc(C)c2c(c1)NC(c1cc3c(cc1Br)OCO3)C1CC=CC21 (stereo not given),50% (inactive)
14,N=C1C(c2nc3ccccc3[nH]2)=C(O)CN1c1ccc(CC(=O)O)cc1,0% (inactive)
15,O=C1NC(c2ccc(Br)cc2)Nc2sc3c(c21)CCC3 (stereo not given),50% (inactive)
16,O=C(O)C1Nc2c(O)cc(Cl)c([N+](=O)[O-])c2C2C=CCC12 (stereo not given),0% (inactive)

row,SMILES,calcium mobilization (agonist)
1,COc1cccc(C2Nc3c(F)cc(Br)cc3C3C=CCC32)c1OC (stereo not given),0% (inactive)
2,COc1ccc2c(c1)C1C=CCC1C(c1cc3c(cc1Br)OCO3)N2 (stereo not given),100%
3,CC(=O)N1c2ccc(Cl)cc2C2C=CCC2C1c1cccc2ccccc12 (stereo not given),100%
4,Cc1cc(-c2nn3c(-c4ccccc4)nnc3s2)c2ccccc2n1,0% (inactive)
5,COc1ccc(CNC(=O)c2cc(-c3cccs3)on2)cc1,0% (inactive)
6,O=C(COC(=O)CCC(=O)c1cccs1)NCc1ccco1,0% (inactive)
7,Oc1ccc(-c2nc(-c3ccc(O)c(O)c3)cs2)cc1,0% (inactive)
8,C[C@]12CC[C@@H]3c4ccc(O)cc4C(=O)C[C@H]3[C@@H]1CC[C@@H]2O,0% (inactive)
9,Cc1ccc2c(c1C)NC(C(=O)O)C1CC=CC21 (stereo not given),0%
10,Cc1cc(C)c2c(c1)[C@@H]1C=CC[C@@H]1[C@H](c1ccc(S(=O)(=O)N3CCOCC3)cc1)N2,0%
11,CC(C)C1Nc2ccc(S(N)(=O)=O)cc2C2C=CCC21 (stereo not given),0% (inactive)
12,O=C(O)c1ccc(NS(=O)(=O)c2ccc3c(c2)C2C=CCC2C(c2ccccc2F)N3)cc1 (stereo not given),0% (inactive)
13,COc1ccc(C(=O)N/N=C(\C)c2ccc3c(c2)C2C=CCC2C(c2ccccc2)N3)cc1 (stereo not given),50% (inactive)
14,CCc1ccc(-c2nn(-c3ccccc3)cc2CSC(=N)N)cc1,50% (inactive)
15,C[C@]12CC[C@@H]3c4ccc(O)cc4[C@@H](O)C[C@H]3[C@@H]1CC[C@@H]2O,0% (inactive)

# Same assay, conditions: Indo-1 calcium mobilization, measured here: antagonist mode response, at 10 µM
row,SMILES,inhibition of estrogen-induced calcium mobilization (higher = more inhibition) [%]
1,Cc1ccc2c(c1Cl)NC(C(=O)O)C1CC(Sc3ccccc3[N+](=O)[O-])C(Cl)C21 (stereo not given),100
2,O=C(O)c1ccc2c(c1)C1C(Cl)C(Sc3ccccc3[N+](=O)[O-])CC1C(c1cccc([N+](=O)[O-])c1)N2 (stereo not given),100
3,CC(C)C1Nc2ccc(C(=O)O)cc2C2C=CCC21 (stereo not given),100
4,CCC(=O)Oc1ccc(/C(CC)=C(\CC)c2ccc(OC(=O)CC)cc2)cc1,50
5,COc1cccc(NS(=O)(=O)c2ccc3c(c2)C2C=CCC2C(c2ccc(C(=O)O)cc2)N3)c1 (stereo not given),100
6,Cc1ccc2c(c1)C1C=CCC1C(C(=O)O)N2 (stereo not given),50
7,Cc1c(Cl)cccc1NS(=O)(=O)c1ccc2c(c1)C1C=CCC1C(c1ccc(C(=O)O)cc1)N2 (stereo not given),100
8,Cc1ccc2c(c1)[C@H]1OCC[C@H]1[C@@H](c1ccncc1)N2,50
9,FC(F)(F)c1ccc2c(c1)C1C=CCC1C(c1ccncc1)N2 (stereo not given),50
10,O=C1NC(c2ccc(Br)cc2)Nc2sc3c(c21)CCC3 (stereo not given),50
11,Cc1ccc2c(c1C)NC(C(=O)O)C1CC=CC21 (stereo not given),100
12,Cc1cc(C)c2c(c1)[C@@H]1C=CC[C@@H]1[C@H](c1ccc(S(=O)(=O)N3CCOCC3)cc1)N2,100
13,O=C(O)c1ccc(NS(=O)(=O)c2ccc3c(c2)C2C=CCC2C(c2ccccc2F)N3)cc1 (stereo not given),50
14,COc1ccc(C(=O)N/N=C(\C)c2ccc3c(c2)C2C=CCC2C(c2ccccc2)N3)cc1 (stereo not given),50

# Source: PubChem BioAssay AID1213 (NMMLSC, 2008)
